molecular target: Histamine H2 receptor (Cavia porcellus, UniProt P47747); test: Histamine H2 receptor antagonistic activity on the isolated spontaneously beating guinea pig right atrium; assay type: functional, tissue-based, Cardiac atrium; details: read-out: pA2 (converted)
Sequence (P47747 whole entry): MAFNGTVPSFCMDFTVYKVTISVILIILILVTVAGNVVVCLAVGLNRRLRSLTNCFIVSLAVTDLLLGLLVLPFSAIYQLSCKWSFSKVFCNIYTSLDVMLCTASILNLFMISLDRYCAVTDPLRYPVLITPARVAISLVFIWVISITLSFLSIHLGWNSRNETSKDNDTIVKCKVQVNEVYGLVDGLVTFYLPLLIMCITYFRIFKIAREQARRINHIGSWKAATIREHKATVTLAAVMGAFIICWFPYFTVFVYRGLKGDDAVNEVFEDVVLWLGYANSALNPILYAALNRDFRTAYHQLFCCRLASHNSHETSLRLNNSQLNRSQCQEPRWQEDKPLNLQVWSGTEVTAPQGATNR

Row | Kb | SMILES
1 | 1820 nM | CC(=O)c1ccc2n(c1=O)[C@H](COC(=O)CCC(=O)NCCCOc1cccc(CN3CCCCC3)c1)Cc1c-2[nH]c2ccccc12
2 | 11 nM | N#CN=C(NCCCCCCCCNc1ccc([N+](=O)[O-])c2n[o+][n-]c12)NCCCOc1cccc(CN2CCCCC2)c1
3 | 44700 nM | N#CN/C(=N\CCNC(=O)c1ccc(C(=O)O)c(C2c3ccc(O)cc3OC3=CC(=O)C=CC32)c1)NCCCOc1cccc(CN2CCCCC2)c1 (stereo not given)
4 | 38.9 nM | CC(=O)OCC(=O)NCCCOc1cccc(CN2CCCCC2)c1 [ROXATIDINE ACETATE]
5 | 10000 nM | N#CN/C(=N\CCCCNC(=O)c1ccc(C(=O)O)c(C2c3ccc(O)cc3OC3=CC(=O)C=CC32)c1)NCCCOc1cccc(CN2CCCCC2)c1 (stereo not given)
6 | 170 nM | CN/C(=C/[N+](=O)[O-])NCCSCc1ccc(CN(C)C)o1 [RANITIDINE]
7 | 182 nM | N#CN/C(=N\CCNC(=O)c1c2ccccc2nc2ccccc12)NCCCOc1cccc(CN2CCCCC2)c1
8 | 1950 nM | CN(C)c1cccc2c(S(=O)(=O)NCC/N=C(\NC#N)NCCCOc3cccc(CN4CCCCC4)c3)cccc12
9 | 25.7 nM | N#CN/C(=N\CCNC(=O)CCCCCNc1ccc([N+](=O)[O-])c2nonc12)NCCCOc1cccc(CN2CCCCC2)c1
10 | 1100 nM | N#CN/C(=N\CCN)NCCCOc1cccc(CN2CCCCC2)c1
11 | 8910 nM | N#CN/C(=N\CCCCNC(=O)c1ccc(C2c3ccc(O)cc3OC3=CC(=O)C=CC32)c(C(=O)O)c1)NCCCOc1cccc(CN2CCCCC2)c1 (stereo not given)
12 | 32.4 nM | N#CN/C(=N\CCCCCCNc1ccc([N+](=O)[O-])c2nonc12)NCCCOc1cccc(CN2CCCCC2)c1
13 | 66100 nM | N#CN/C(=N\CCNC(=O)c1ccc(C2c3ccc(O)cc3OC3=CC(=O)C=CC32)c(C(=O)O)c1)NCCCOc1cccc(CN2CCCCC2)c1 (stereo not given)
14 | 18.2 nM | NC(N)=Nc1nc(CSCCC(N)=NS(N)(=O)=O)cs1 [FAMOTIDINE]
15 | 37.2 nM | N#CN/C(=N\CCCNc1ccc([N+](=O)[O-])c2nonc12)NCCCOc1cccc(CN2CCCCC2)c1

Reference: ChEMBL document CHEMBL1136385, “Synthesis and pharmacological activity of fluorescent histamine H2 receptor antagonists related to potentidine” (Bioorg Med Chem Lett, 2003)
